In patent publication US20260224554A1, “OBEFAZIMOD FOR TREATMENT OF ULCERATIVE COLITIS” (ABIVAX, priority 2023, published 2026):

Test system: subjects with Moderate to Severe Active Ulcerative Colitis
Test: Follow-up Phase II open-label long-term study of ABX464 25 mg QD (ABX464-108), interim analysis
Format: in vivo, human
Method: • The primary objective of the study is to evaluate the long-term safety of ABX464 given at 25 mg once daily in subjects with Moderate to Severe Active Ulcerative Colitis • Number of Adverse Events (AEs) in ABX464 treated subjects
The secondary objectives are: • To evaluate the long-term effect of ABX464 on clinical remission; • Percentage of subjects reaching clinical remission at yearly visits. • To evaluate the long-term effect of ABX464 on endoscopic remission; • Percentage of subjects reaching endoscopic remission at yearly visits. • To evaluate the long-term effect of ABX464 on clinical response; • Percentage of subjects reaching clinical response at yearly visits. • To evaluate the long-term effect of ABX464 on endoscopic improvement; • Percentage of subjects reaching endoscopic improvement at yearly visits. • To evaluate the long-term effect of ABX464 on inflammatory markers (C-reactive protein (CRP), calprotectin); • The change from Baseline in CRP and fecal calprotectin levels. • To evaluate the safety profile of ABX464; • Number and rate of all AEs and causally-related AEs, all Serious Adverse Events (SAEs) and causally-related SAEs, all AEs of Special Interest (AESIs) and causally-related AESIs, classified by severity; • Incidence of AEs leading to investigational medicinal product discontinuation; • The number of clinically-significant laboratory abnormalities. • To evaluate the effect of ABX464 on miR-124 expression in total blood at every timepoint defined in the schedule of assessment. • Change relative to baseline in miRNA-124 expression in total blood at every defined timepoint.
For the purpose of the study, the following definitions will be applied: • Clinical remission based on the Mayo Scoring system, is defined as stool frequency subscore=0 or 1 and rectal bleeding subscore=0 and endoscopy subscore=0 or 1 (modified to exclude friability). • Clinical Response is defined as a reduction from baseline in modified Mayo Score of at least 2 points and greater than or equal to 30 percent from baseline with an accompanying decrease in rectal bleeding sub-score of greater than or equal to 1 point or absolute rectal bleeding sub-score of less than or equal to 1 point. • Endoscopic remission defined as a Mayo endoscopic sub score of 0. • Endoscopic improvement is defined as a Mayo endoscopic sub score of ≤1 (excluding friability).
This study is an open-label study aiming at evaluating the long-term safety and the efficacy profile of ABX464 given once a day (QD) at 25 mg in subjects who have been previously enrolled in the ABX464-102 or ABX464-104 studies (OLE and maintenance studies) and who are willing to continue their treatment.
All subjects will receive ABX464 given at 25 mg QD.
Subjects will be treated with ABX464 for a maximum period of 54 months. Subjects will be followed up quarterly. After the treatment period, subjects will be followed for 4 additional weeks for safety purposes.
A subject will be eligible to participate in this study if ALL the following criteria are met: • 1. Subjects who previously completed the ABX464-102 or ABX464-104 clinical studies; • 2. Subjects should be in endoscopic improvement with a rectal bleeding sub-score=0 point at the end of treatment period in the previous study (ABX464-102 or ABX464-104). Endoscopic improvement is defined as: a Mayo endoscopic sub score of ≤1; • 3. Subjects able and willing to comply with study visits and procedures; • 4. […]

Structure (SMILES): FC(F)(F)Oc1ccc(Nc2ccc3cccc(Cl)c3n2)cc1 [Obefazimod, 8-chloro-N-[4-(trifluoromethoxy)phenyl]quinolin-2-amine]
- Durability of efficacy (MMS evaluation) (25 mg QD in patients who achieved endoscopic improvement after 2-4 years of exposure to 50 mg): continues to have durable efficacy
- Proportion of patients with Fecal Calprotectin <250 microgm/gm (63 patients who completed 48-week treatment with 25 mg QD): 93%
- Disease control Rate (Stable+improved MMS) (63 patients who completed 48-week treatment with 25 mg QD, after 2-4 years of 50 mg in ABX464-102/-104): 84.1%
- New safety signals (UC patients treated for up to 5 years): no new safety signals
- Patients withdrawn due to AE (of 74 patients analyzed, 48-week treatment with 25 mg QD): 2 patients
